Test results from patent US12697330B2, “Therapeutic methods using vadadustat” (Akebia Therapeutics, Inc., priority 2021, dated 2026).

Tested on: hemoglobin (Hb)
Test: Phase 2 study in hemodialysis subjects converting from epoetin alfa, Main Study: efficacy (hemoglobin)
Format: in vivo, human
Description: The primary objective was to assess the efficacy and safety of daily dosing of vadadustat compared to epoetin alfa for 12 weeks in hemodialysis subjects. Additional objectives included to assess the efficacy and safety of three times weekly (TIW) dosing of vadadustat in selected hemodialysis subjects who have been successfully managed with daily dosing of vadadustat through Week 12, to evaluate the PK/PD of daily and TIW dosing of vadadustat in hemodialysis subjects compared to epoetin alfa, and to assess the efficacy and safety of several dosing strategies of vadadustat compared to epoetin alfa during a 20-week Treatment Period in hemodialysis subjects.
The Main study population consisted of adult subjects receiving chronic, outpatient in-center hemodialysis three times weekly (TIW), with 2 screening hemoglobin (Hb) values between 8.5 and 11.0 g/dL (inclusive) and on maintenance treatment with epoetin alfa <300 U/kg/week.
Efficacy Endpoints. The primary endpoint was the mean change in Hb between Baseline (average pretreatment Hb) and the primary evaluation period (average Hb from Weeks 10 to 12). Secondary endpoints included proportion of subjects with Hb values within the target range (10.0 to 11.0 g/dL, inclusive) at the primary evaluation period (Weeks 10-12) and for subjects who transitioned to TIW vadadustat dosing, mean change in Hb from primary evaluation period (average Hb from Weeks 10-12) to the secondary period (average Hb from Weeks 18-20). Other secondary endpoints included mean change in Hb from Baseline (average pretreatment Hb) and the secondary evaluation period (average Hb from Weeks 18-20), proportion of subjects with Hb values within the target range (10.0 to 11.0 g/dL, inclusive) at the secondary evaluation period (Weeks 18 to 20), for subjects who transitioned to TIW vadadustat dosing, proportion of subjects with Hb values within the target range (10.0 to 11.0 g/dL, inclusive) at the secondary evaluation period (Weeks 18-20), proportion of subjects with a mean increase in Hb from Baseline to the primary evaluation period ≥0.5 g/dL (average Hb from Weeks 10-12) or with Hb values within the target range (10.0 to 11.0 g/dL, inclusive) at the primary evaluation period (Weeks 10-12), proportion of subject with a mean increase in Hb from Baseline to the secondary evaluation period ≥0.5 g/dL (average Hb from Weeks 18-20) or with Hb values within the target range (10.0 to 11.0 g/dL, inclusive) at the secondary evaluation period (Weeks 18-20), intravenous (IV) iron supplementation, ESA rescue, and RBC transfusion.
Study Design. This was a Phase 2, randomized, open-label study to evaluate vadadustat for the treatment of anemia in hemodialysis subjects converting from epoetin alfa therapy. For all subjects (Main study and ESA hyporesponder parallel study), the study included a Screening Period, a study Treatment Period, and a Safety Follow-Up Period as described below. PK and PD sampling were done throughout the study. The aim was to achieve and maintain Hb levels within the target range of 10.0 to 11.0 g/dL, inclusive, while targeting the middle of the range and minimizing excursions outside the target range.
Randomization. Subjects were randomized to either a vadadustat treatment arm or epoetin alfa treatment arm. Randomization was stratified by mean weekly epoetin alfa dose calculated over a period of 8 weeks prior to SV2: low epoetin alfa dose group (≤90 U/kg/week) or high epoetin alfa dose group (>90 to <300 U/kg/week). In the low epoetin alfa dose group, subjects were randomized in a 3:3:2 ratio to receive either an initial vadadustat daily dose of 450 mg (3 tablets) or 300 mg (2 tablets), or epoetin alfa. In the high epoetin alfa dose group, subjects were randomized in a 3:3:3:2 ratio to receive either an initial vadadustat daily dose of 600 mg (4 tablets), 450 mg (3 tablets) or 300 mg (2 tablets), or epoetin alfa.
Study Treatment Period (Baseline/Day 1 to Week 20). […]

[1] = Primary Evaluation Period (Average of Weeks 10 to 12), Vada 300 mg, High Epoetin Alfa (>90 to <300 U/kg/week)
[2] = Primary Evaluation Period (Average of Weeks 10 to 12), Vada 300 mg, Low Epoetin Alfa (<90 U/kg/week)
[3] = Primary Evaluation Period (Average of Weeks 10 to 12), Vada 450 mg, High Epoetin Alfa (>90 to <300 U/kg/week)
[4] = Primary Evaluation Period (Average of Weeks 10 to 12), Vada 450 mg, Low Epoetin Alfa (<90 U/kg/week)
[5] = Primary Evaluation Period (Average of Weeks 10 to 12), Vada 600 mg, High Epoetin Alfa (>90 to <300 U/kg/week)
[6] = Secondary Evaluation Period (Average of Weeks 18 to 20), Vada 300 mg, High Epoetin Alfa (>90 to <300 U/kg/week)
[7] = Secondary Evaluation Period (Average of Weeks 18 to 20), Vada 300 mg, Low Epoetin Alfa (<90 U/kg/week)
[8] = Secondary Evaluation Period (Average of Weeks 18 to 20), Vada 450 mg, High Epoetin Alfa (>90 to <300 U/kg/week)
[9] = Secondary Evaluation Period (Average of Weeks 18 to 20), Vada 450 mg, Low Epoetin Alfa (<90 U/kg/week)
[10] = Secondary Evaluation Period (Average of Weeks 18 to 20), Vada 600 mg, High Epoetin Alfa (>90 to <300 U/kg/week)
[11] = Vada 300 mg, High Epoetin Alfa (>90 to <300 U/kg/week)
[12] = Vada 300 mg, Low Epoetin Alfa (<90 U/kg/week)
[13] = Vada 450 mg, High Epoetin Alfa (>90 to <300 U/kg/week)
[14] = Vada 450 mg, Low Epoetin Alfa (<90 U/kg/week)
[15] = Vada 600 mg, High Epoetin Alfa (>90 to <300 U/kg/week)

Structure (SMILES): O=C(O)CNC(=O)c1ncc(-c2cccc(Cl)c2)cc1O [Compound 1, {[5-(3-chlorophenyl)-3-hydroxypyridine-2-carbonyl]amino}acetic acid]
- Subjects with Hb Higher than Target range (10.0 to 11.0 g/dL), number (percentage of N2) [1]: 0
- Subjects with Hb Lower than Target range (10.0 to 11.0 g/dL), number (percentage of N2) [1]: 11 (91.7)
- Subjects with Hb Within Target range (10.0 to 11.0 g/dL), number (percentage of N2) [1]: 1 (8.3)
- Subjects with Hb Higher than Target range (10.0 to 11.0 g/dL), number (percentage of N2) [2]: 2 (6.7)
- Subjects with Hb Lower than Target range (10.0 to 11.0 g/dL), number (percentage of N2) [2]: 16 (53.3)
- Subjects with Hb Within Target range (10.0 to 11.0 g/dL), number (percentage of N2) [2]: 12 (40.0)
- Subjects with Hb Higher than Target range (10.0 to 11.0 g/dL), number (percentage of N2) [3]: 4 (22.2)
- Subjects with Hb Lower than Target range (10.0 to 11.0 g/dL), number (percentage of N2) [3]: 10 (55.6)
- Subjects with Hb Within Target range (10.0 to 11.0 g/dL), number (percentage of N2) [3]: 4 (22.2)
- Subjects with Hb Higher than Target range (10.0 to 11.0 g/dL), number (percentage of N2) [4]: 6 (20.0)
- Subjects with Hb Lower than Target range (10.0 to 11.0 g/dL), number (percentage of N2) [4]: 11 (36.7)
- Subjects with Hb Within Target range (10.0 to 11.0 g/dL), number (percentage of N2) [4]: 13 (43.3)
- Subjects with Hb Higher than Target range (10.0 to 11.0 g/dL), number (percentage of N2) [5]: 2 (14.3)
- Subjects with Hb Lower than Target range (10.0 to 11.0 g/dL), number (percentage of N2) [5]: 8 (57.1)
- Subjects with Hb Within Target range (10.0 to 11.0 g/dL), number (percentage of N2) [5]: 4 (28.6)
- Subjects with Hb Higher than Target range (10.0 to 11.0 g/dL), number (percentage of N2) [6]: 1 (14.3)
- Subjects with Hb Lower than Target range (10.0 to 11.0 g/dL), number (percentage of N2) [6]: 4 (57.1)
- Subjects with Hb Within Target range (10.0 to 11.0 g/dL), number (percentage of N2) [6]: 2 (28.6)
- Subjects with Hb Higher than Target range (10.0 to 11.0 g/dL), number (percentage of N2) [7]: 4 (15.4)
- Subjects with Hb Lower than Target range (10.0 to 11.0 g/dL), number (percentage of N2) [7]: 16 (61.5)
- Subjects with Hb Within Target range (10.0 to 11.0 g/dL), number (percentage of N2) [7]: 6 (23.1)
- Subjects with Hb Higher than Target range (10.0 to 11.0 g/dL), number (percentage of N2) [8]: 2 (14.3)
- Subjects with Hb Lower than Target range (10.0 to 11.0 g/dL), number (percentage of N2) [8]: 9 (64.3)
- Subjects with Hb Within Target range (10.0 to 11.0 g/dL), number (percentage of N2) [8]: 3 (21.4)
- Subjects with Hb Higher than Target range (10.0 to 11.0 g/dL), number (percentage of N2) [9]: 3 (12.5)
- Subjects with Hb Lower than Target range (10.0 to 11.0 g/dL), number (percentage of N2) [9]: 14 (58.3)
- Subjects with Hb Within Target range (10.0 to 11.0 g/dL), number (percentage of N2) [9]: 7 (29.2)
- Subjects with Hb Higher than Target range (10.0 to 11.0 g/dL), number (percentage of N2) [10]: 1 (10.0)
- Subjects with Hb Lower than Target range (10.0 to 11.0 g/dL), number (percentage of N2) [10]: 7 (70.0)
- Subjects with Hb Within Target range (10.0 to 11.0 g/dL), number (percentage of N2) [10]: 2 (20.0)
- Change from Baseline in Hb at Primary Evaluation Period, Mean (SD) [11]: −1.048 (0.730) g/dL
- Change from Baseline in Hb at Primary Evaluation Period, Median [11]: -0.967 g/dL
- Change from Baseline in Hb at Secondary Evaluation Period, Mean (SD) [11]: 0.017 (1.086) g/dL
- Change from Baseline in Hb at Secondary Evaluation Period, Median [11]: -0.325 g/dL
- Hb at Primary Evaluation Period (Average of Weeks 10 to 12), Mean (SD) [11]: 8.82 (0.761) g/dL
- Hb at Primary Evaluation Period (Average of Weeks 10 to 12), Median [11]: 8.750 g/dL
- Hb at Secondary Evaluation Period (Average of Weeks 18 to 20), Mean (SD) [11]: 9.88 (1.027) g/dL
- Hb at Secondary Evaluation Period (Average of Weeks 18 to 20), Median [11]: 9.575 g/dL
- Change from Baseline in Hb at Primary Evaluation Period, Mean (SD) [12]: −0.421 (0.732) g/dL
- Change from Baseline in Hb at Primary Evaluation Period, Median [12]: -0.450 g/dL
- Change from Baseline in Hb at Secondary Evaluation Period, Mean (SD) [12]: −0.327 (1.086) g/dL
- Change from Baseline in Hb at Secondary Evaluation Period, Median [12]: -0.300 g/dL
- Hb at Primary Evaluation Period (Average of Weeks 10 to 12), Mean (SD) [12]: 9.78 (0.742) g/dL
- Hb at Primary Evaluation Period (Average of Weeks 10 to 12), Median [12]: 9.767 g/dL
- Hb at Secondary Evaluation Period (Average of Weeks 18 to 20), Mean (SD) [12]: 9.86 (0.932) g/dL
- Hb at Secondary Evaluation Period (Average of Weeks 18 to 20), Median [12]: 9.775 g/dL
- Change from Baseline in Hb at Primary Evaluation Period, Mean (SD) [13]: −0.130 (1.033) g/dL
- Change from Baseline in Hb at Primary Evaluation Period, Median [13]: -0.250 g/dL
- Change from Baseline in Hb at Secondary Evaluation Period, Mean (SD) [13]: −0.458 (0.895) g/dL
- Change from Baseline in Hb at Secondary Evaluation Period, Median [13]: -0.575 g/dL
- Hb at Primary Evaluation Period (Average of Weeks 10 to 12), Mean (SD) [13]: 9.96 (1.121) g/dL
- Hb at Primary Evaluation Period (Average of Weeks 10 to 12), Median [13]: 9.750 g/dL
- Hb at Secondary Evaluation Period (Average of Weeks 18 to 20), Mean (SD) [13]: 9.63 (0.954) g/dL
- Hb at Secondary Evaluation Period (Average of Weeks 18 to 20), Median [13]: 9.475 g/dL
- Change from Baseline in Hb at Primary Evaluation Period, Mean (SD) [14]: −0.074 (1.085) g/dL
- Change from Baseline in Hb at Primary Evaluation Period, Median [14]: 0.017 g/dL
- Change from Baseline in Hb at Secondary Evaluation Period, Mean (SD) [14]: −0.273 (0.827) g/dL
- Change from Baseline in Hb at Secondary Evaluation Period, Median [14]: -0.300 g/dL
- Hb at Primary Evaluation Period (Average of Weeks 10 to 12), Mean (SD) [14]: 10.08 (1.226) g/dL
- Hb at Primary Evaluation Period (Average of Weeks 10 to 12), Median [14]: 10.550 g/dL
- Hb at Secondary Evaluation Period (Average of Weeks 18 to 20), Mean (SD) [14]: 9.91 (0.909) g/dL
- Hb at Secondary Evaluation Period (Average of Weeks 18 to 20), Median [14]: 9.917 g/dL
- Change from Baseline in Hb at Primary Evaluation Period, Mean (SD) [15]: −0.541 (1.124) g/dL
- Change from Baseline in Hb at Primary Evaluation Period, Median [15]: -0.133 g/dL
- Change from Baseline in Hb at Secondary Evaluation Period, Mean (SD) [15]: −0.500 (1.025) g/dL
- Change from Baseline in Hb at Secondary Evaluation Period, Median [15]: -0.300 g/dL
- Hb at Primary Evaluation Period (Average of Weeks 10 to 12), Mean (SD) [15]: 9.62 (1.026) g/dL
- Hb at Primary Evaluation Period (Average of Weeks 10 to 12), Median [15]: 9.233 g/dL
- Hb at Secondary Evaluation Period (Average of Weeks 18 to 20), Mean (SD) [15]: 9.57 (0.871) g/dL
- Hb at Secondary Evaluation Period (Average of Weeks 18 to 20), Median [15]: 9.450 g/dL
